Assay results taken from US20260132129A1 (Genesis Therapeutics, Inc., priority 2022, published 2026).

Molecular target: T1, PI3Kα H1047R (T47D cells) (Homo sapiens, UniProt P42336, H1047R)
T1 construct: endogenous in cells; host or cells: T47D cells
Assay: PI3Kα cellular assay: pAKT HTRF in T47D cells after EGF stimulation
Format: cell-based
Settings: for IC50: T47D cells (PI3Kα H1047R), pAKT S473 HTRF, EGF stimulation
How it was run: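 T47D cells (PIK3CA H1047R) serum-starved 16 h, then treated 1 h at 37 °C with compound (10,000 nM top, 3-fold steps to 0.5 nM). After 10 min stimulation with 20 ng/mL EGF, cells were lysed and pAKT measured by HTRF.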

[1] = selectivity of T47D (H1047R) over SKBR3 (WT) pAKT IC50
[2] = selectivity T47D (H1047R) over SKBR3 (WT), pAKT HTRF

T1 sequence (P42336 whole entry H1047R): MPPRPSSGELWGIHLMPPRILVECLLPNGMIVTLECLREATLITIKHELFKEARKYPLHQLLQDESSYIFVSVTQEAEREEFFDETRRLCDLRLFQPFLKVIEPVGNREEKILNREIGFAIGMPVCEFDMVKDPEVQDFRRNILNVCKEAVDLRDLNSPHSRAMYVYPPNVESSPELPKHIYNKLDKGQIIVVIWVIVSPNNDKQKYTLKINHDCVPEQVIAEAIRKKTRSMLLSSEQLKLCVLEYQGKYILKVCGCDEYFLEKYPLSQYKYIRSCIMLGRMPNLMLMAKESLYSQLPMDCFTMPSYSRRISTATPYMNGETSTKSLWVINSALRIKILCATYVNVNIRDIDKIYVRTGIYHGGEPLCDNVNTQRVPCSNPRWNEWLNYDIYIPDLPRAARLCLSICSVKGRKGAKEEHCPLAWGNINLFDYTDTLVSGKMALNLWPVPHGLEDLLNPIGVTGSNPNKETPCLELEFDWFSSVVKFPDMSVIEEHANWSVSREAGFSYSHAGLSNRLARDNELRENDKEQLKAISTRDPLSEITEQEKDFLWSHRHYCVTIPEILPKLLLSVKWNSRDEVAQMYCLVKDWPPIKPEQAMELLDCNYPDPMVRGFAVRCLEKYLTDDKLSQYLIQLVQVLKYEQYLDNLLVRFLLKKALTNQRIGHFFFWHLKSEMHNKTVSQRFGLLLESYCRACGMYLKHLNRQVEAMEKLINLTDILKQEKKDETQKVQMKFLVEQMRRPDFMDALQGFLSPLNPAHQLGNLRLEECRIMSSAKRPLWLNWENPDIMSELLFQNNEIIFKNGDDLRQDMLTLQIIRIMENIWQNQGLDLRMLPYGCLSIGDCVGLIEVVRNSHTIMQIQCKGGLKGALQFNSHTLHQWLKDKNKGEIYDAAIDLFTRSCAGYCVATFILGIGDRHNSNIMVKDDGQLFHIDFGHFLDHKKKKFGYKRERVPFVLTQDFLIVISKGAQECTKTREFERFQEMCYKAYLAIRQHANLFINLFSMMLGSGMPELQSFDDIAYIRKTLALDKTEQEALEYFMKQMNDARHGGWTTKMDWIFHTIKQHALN
T1 sequence (P27986 whole entry partner): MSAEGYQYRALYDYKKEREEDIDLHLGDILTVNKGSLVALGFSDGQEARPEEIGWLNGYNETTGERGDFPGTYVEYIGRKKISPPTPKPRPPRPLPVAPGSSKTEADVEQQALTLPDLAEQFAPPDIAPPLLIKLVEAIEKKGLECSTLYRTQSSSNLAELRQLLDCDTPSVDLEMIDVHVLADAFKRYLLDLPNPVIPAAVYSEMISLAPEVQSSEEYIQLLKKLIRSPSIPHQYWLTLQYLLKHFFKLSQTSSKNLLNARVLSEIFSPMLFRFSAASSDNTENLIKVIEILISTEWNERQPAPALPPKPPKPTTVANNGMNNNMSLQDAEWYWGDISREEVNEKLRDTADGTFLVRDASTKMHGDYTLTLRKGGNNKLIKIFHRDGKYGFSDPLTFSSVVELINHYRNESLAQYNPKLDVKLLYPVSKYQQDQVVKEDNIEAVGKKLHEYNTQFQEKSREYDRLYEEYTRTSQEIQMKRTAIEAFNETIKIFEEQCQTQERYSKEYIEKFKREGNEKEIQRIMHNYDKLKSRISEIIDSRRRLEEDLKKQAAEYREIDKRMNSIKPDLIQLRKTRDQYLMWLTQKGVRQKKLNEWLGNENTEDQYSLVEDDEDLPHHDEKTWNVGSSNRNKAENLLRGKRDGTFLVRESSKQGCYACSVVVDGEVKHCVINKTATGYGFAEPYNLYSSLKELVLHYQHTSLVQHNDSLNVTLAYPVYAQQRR

Structure (SMILES)	IC50 [µM]	T47D pAKT S473 HTRF IC50 (H1047R): T47D (H1047R) selectivity over SKBR3 (WT) [1]	T47D pAKT S473 HTRF IC50 (H1047R): T47D (H1047R) selectivity over SKBR3 (WT) [2]
Cc1cc([C@@H](C)Nc2ccccc2C(=O)O)c2nc(-c3cccc(C(F)F)c3)c(C)c(=O)n2c1 [Compound 972, (R)-2-((1-(2-(3-(difluoromethyl)phenyl)-3,7-dimethyl-4-oxo-4H-pyrido[1,2-a]pyrimidin-9-yl)ethyl)amino)benzoic acid]	< 0.1	A (A denotes >20-fold)	
Cc1cc([C@H](C)Nc2ccccc2S(N)(=O)=O)c2nc(-c3cnc4c(c3)c(C)nn4C)c(C)c(=O)n2c1 [Compound 988]	> 2	C (C denotes ≤5-fold)	
Cc1cc([C@@H](C)Nc2ccccc2S(N)(=O)=O)c2nc(-c3ccc4c(c3)c(C)cn4C3CC3)c(C)c(=O)n2c1 [Compound 995]	> 2	C (C denotes ≤5-fold)	
Cc1cc(C(C)Nc2cccc3c2S(=O)(=O)NC3=O)c2nc(N3Cc4ccccc4C3)cc(=O)n2c1 (centres unmarked) [Compound 998]		C (C denotes ≤5-fold)	
Cc1cc([C@@H](C)Nc2ccccc2C(=O)O)c2nc(-c3ccncc3)c(C)c(=O)n2c1 [Compound 1004]	> 2	C (C denotes ≤5-fold)	
Cc1cc([C@H](C)Nc2ccccc2C(=O)O)c2nc(-c3ccc4c(c3)c(C)cn4C3CCOCC3)c(C)c(=O)n2c1 [Compound 1009]		C (C denotes ≤5-fold)	
Cc1cc([C@@H](C)Nc2cc[nH]c2-c2ccnnc2)c2nc(N3Cc4ccccc4C3)c(C)c(=O)n2c1 [Compound 1014]		C (C denotes ≤5-fold)	
Cc1cc([C@H](C)Nc2ccccc2S(N)(=O)=O)c2nc(-c3ccc4c(C)nn(C5CC5)c4c3)c(C)c(=O)n2c1 [Compound 1028]		C (C denotes ≤5-fold)	
Cc1cc([C@H](C)Nc2ccccc2S(N)(=O)=O)c2nc(-c3ccc(F)c(C#N)c3)c(C)c(=O)n2c1 [Compound 1032]	> 2	C (C denotes ≤5-fold)	
Cc1cc([C@H](C)Nc2ccccc2S(N)(=O)=O)c2nc(-c3cccc(C#N)c3)c(C)c(=O)n2c1 [Compound 1035]	> 2	C (C denotes ≤5-fold)	
C=CC(=O)Nc1ccc(C(=O)O)c(NC(C)c2cc(C)cn3c(=O)c(C)c(N4Cc5ccccc5C4)nc23)c1 (centres unmarked) [Compound 1039]	> 2	C (C denotes ≤5-fold)	
CC(=O)NS(=O)(=O)c1ccccc1N[C@@H](C)c1cc(C)cn2c(=O)c(C)c(-c3ccc4c(c3)CC(F)(F)C4)nc12 [Compound 1040]		C (C denotes ≤5-fold)	
CCc1c(-c2ccc3c(c2)c(C)cn3C)nc2c([C@H](C)Nc3ccccc3C(=O)O)cc(C)cn2c1=O [Compound 1043]		B (B denotes 20-fold≥value>5-fold)	
Cc1cc([C@H](C)Nc2ccccc2C(=O)O)c2nc(-c3ccc4c(c3)c(C#N)nn4C3CC3)c(C)c(=O)n2c1 [Compound 1049]	> 2	C (C denotes ≤5-fold)	
Cc1cc([C@H](C)Nc2ccccc2C(=O)O)c2nc(-c3cnc4c(c3)c(C)cn4C)c(C)c(=O)n2c1 [Compound 1051]		C (C denotes ≤5-fold)	
Cc1cc([C@@H](C)Nc2ccccc2C(=O)O)c2nc(-c3cnc(C)c(Cl)c3)c(C)c(=O)n2c1 [Compound 1052]	0.1 to 0.5	A (A denotes >20-fold)	
Cc1cc([C@H](C)Nc2ccccc2C(=O)O)c2nc(-c3cnc4c(c3)c(C)cn4C)c(C)c(=O)n2c1 [Compound 1053]		C (C denotes ≤5-fold)	
Cc1cc(C(C)Nc2ccccc2C(=O)O)c2nc(-c3cnc4c(c3)c(C)nn4C3CC3)c(C)c(=O)n2c1 (centres unmarked) [Compound 1054]		B (B denotes 20-fold≥value>5-fold)	
Cc1cc([C@H](C)Nc2ccccc2C(=O)O)c2nc(C3CCOCC3)c(C)c(=O)n2c1 [Compound 1056]	> 2	C (C denotes ≤5-fold)	
Cc1cc([C@H](C)Nc2ccccc2S(N)(=O)=O)c2nc(-c3cnc4c(c3)c(C)cn4C)c(C)c(=O)n2c1 [Compound 1060]	> 2		C (C denotes ≤5-fold)
Cc1cc([C@@H](C)Nc2ccccc2S(C)(=O)=O)c2nc(-c3ccc4c(C)cn(C)c4c3)c(C)c(=O)n2c1 [Compound 1061]			C (C denotes ≤5-fold)
Cc1cc([C@H](C)Nc2ccccc2S(C)(=O)=O)c2nc(-c3ccc4c(C)cn(C)c4c3)c(C)c(=O)n2c1 [Compound 1062]			C (C denotes ≤5-fold)

Further lines, results first:

IC50 [µM]	T47D pAKT S473 HTRF IC50 (H1047R): T47D (H1047R) selectivity over SKBR3 (WT) [1]	T47D pAKT S473 HTRF IC50 (H1047R): T47D (H1047R) selectivity over SKBR3 (WT) [2]	Structure (SMILES)
0.5 to 2	B (B denotes 20-fold≥value>5-fold)		Cc1cc([C@H](C)Nc2ccccc2C(=O)O)c2nc(-c3ccnc(C4CC4)c3)c(C)c(=O)n2c1 [Compound 954]
> 2	C (C denotes ≤5-fold)		Cc1cc([C@@H](C)Nc2ccccc2C(=O)C(F)(F)F)c2nc(N(C)Cc3ccccc3)c(C)c(=O)n2c1 [Compound 957]
> 2	C (C denotes ≤5-fold)		Cc1cc([C@H](C)Nc2ccccc2C(=O)C(F)(F)F)c2nc(N3Cc4ccccc4C3)c(C)c(=O)n2c1 [Compound 958]
0.1 to 0.5	A (A denotes >20-fold)		Cc1cc([C@@H](C)Nc2ccccc2S(N)(=O)=O)c2nc(-c3ccc4c(c3)c(C)nn4C3CC3)c(C)c(=O)n2c1 [Compound 961]
> 2	C (C denotes ≤5-fold)		Cc1cc([C@H](C)Nc2ccccc2S(N)(=O)=O)c2nc(-c3ccc4c(c3)c(C)nn4C3CC3)c(C)c(=O)n2c1 [Compound 962]
> 2	C (C denotes ≤5-fold)		Cc1cc([C@H](C)Nc2ccccc2C(=O)O)c2nc(-c3ccc(C#N)nc3)c(C)c(=O)n2c1 [Compound 976]
> 2	C (C denotes ≤5-fold)		Cc1cc(C(C)Nc2cccc(C#N)c2C(=O)O)c2nc(-c3ccc4c(c3)c(C)nn4C)cc(=O)n2c1 (centres unmarked) [Compound 981]
< 0.1	A (A denotes >20-fold)		Cc1cc([C@@H](C)Nc2ccccc2C(=O)O)c2nc(-c3ccc4c(C)cn(C)c4c3)c(C)c(=O)n2c1 [Compound 984]
> 2	C (C denotes ≤5-fold)		Cc1cc([C@H](C)Nc2ccccc2C(=O)O)c2nc(-c3ccc4c(C)cn(C)c4c3)c(C)c(=O)n2c1 [Compound 985]
0.1 to 0.5	A (A denotes >20-fold)		Cc1cc(C(C)Nc2ccccc2S(N)(=O)=O)c2nc(-c3cnc4c(c3)c(C)nn4C3CC3)c(C)c(=O)n2c1 (centres unmarked) [Compound 990]
0.1 to 0.5	A (A denotes >20-fold)		Cc1cc([C@@H](C)Nc2ccccc2S(N)(=O)=O)c2nc(-c3cnc4c(c3)c(C)nn4C3CC3)c(C)c(=O)n2c1 [Compound 991]
0.1 to 0.5	A (A denotes >20-fold)		CCc1c(-c2ccc3c(c2)c(C)cn3C)nc2c(C(C)Nc3ccccc3C(=O)O)cc(C)cn2c1=O (centres unmarked) [Compound 1019]
< 0.1	A (A denotes >20-fold)		Cc1cc([C@@H](C)Nc2ccccc2C(=O)O)c2nc(-c3ccc(F)c(C)c3)c(C)c(=O)n2c1 [Compound 1022]
0.1 to 0.5	A (A denotes >20-fold)		Cc1cc(C(C)Nc2ccccc2C(=O)O)c2nc(-c3ccc4c(c3)c(C#N)nn4C3CC3)c(C)c(=O)n2c1 (centres unmarked) [Compound 1026]
0.1 to 0.5	A (A denotes >20-fold)		Cc1cc([C@@H](C)Nc2ccccc2S(N)(=O)=O)c2nc(-c3ccc4c(C)nn(C5CC5)c4c3)c(C)c(=O)n2c1 [Compound 1027]
0.1 to 0.5	A (A denotes >20-fold)		Cc1cc(C(C)Nc2ccccc2S(N)(=O)=O)c2nc(-c3cccc(C#N)c3)c(C)c(=O)n2c1 (centres unmarked) [Compound 1033]
< 0.1	A (A denotes >20-fold)		Cc1cc([C@@H](C)Nc2ccccc2S(N)(=O)=O)c2nc(-c3cccc(C#N)c3)c(C)c(=O)n2c1 [Compound 1034]
< 0.1	A (A denotes >20-fold)		C[C@@H]1C[C@H](C)CN(c2cc(=O)n3cc(C(F)(F)F)cc([C@@H](C)Nc4ccccc4C(=O)O)c3n2)C1 [Compound 1036]
0.1 to 0.5	A (A denotes >20-fold)		Cc1cc([C@@H](C)Nc2ccccc2C(=O)O)c2nc(-c3ccc4c(c3)c(C#N)nn4C3CC3)c(C)c(=O)n2c1 [Compound 1048]
< 0.1	A (A denotes >20-fold)		Cc1cc([C@@H](C)Nc2ccccc2C(=O)O)c2nc(-c3cnc4c(c3)c(C)cn4C)c(C)c(=O)n2c1 [Compound 1050]
0.1 to 0.5	A (A denotes >20-fold)		Cc1cc([C@@H](C)Nc2ccccc2C(=O)O)c2nc(C3CCOCC3)c(C)c(=O)n2c1 [Compound 1055]
0.1 to 0.5		A (A denotes >20-fold)	Cc1cc(C(C)Nc2ccccc2C(N)=O)c2nc(-c3ccnc(C4CC4)c3)c(C)c(=O)n2c1 (centres unmarked) [Compound 1063]
